Data published in PMC12041767 (Journal of immunology (Baltimore, Md. : 1950), 2025).

Columns and labels:
[1] = target: HLA-E*01:03 (Homo sapiens, UniProt P13747); type: binding; settings: S/P relative to positive control […] or […], tested at least two times, median, Figure 1
[2] = target: NKG2A/CD94 (Homo sapiens, UniProt P26715+Q13241); type: binding
Chain of NKG2A/CD94 (P26715 whole entry): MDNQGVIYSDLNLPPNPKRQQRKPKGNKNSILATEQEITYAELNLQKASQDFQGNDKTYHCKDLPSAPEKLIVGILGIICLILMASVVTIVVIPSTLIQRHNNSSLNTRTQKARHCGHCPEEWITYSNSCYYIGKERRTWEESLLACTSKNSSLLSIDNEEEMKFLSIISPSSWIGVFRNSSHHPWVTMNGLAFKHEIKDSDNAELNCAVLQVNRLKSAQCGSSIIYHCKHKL
Chain of NKG2A/CD94 (Q13241 whole entry): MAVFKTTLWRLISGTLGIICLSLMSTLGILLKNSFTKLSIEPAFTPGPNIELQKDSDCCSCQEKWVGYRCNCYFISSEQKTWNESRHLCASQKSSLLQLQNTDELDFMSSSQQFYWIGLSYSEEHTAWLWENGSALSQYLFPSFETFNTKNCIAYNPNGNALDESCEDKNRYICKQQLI

Sequence | Peptide binding affinity for HLA-E*01:03 (signal to positive, S/P, ratio), in words [1] | Interaction of thermal exchanged HLA-E TM/peptide complex with NKG2A/CD94, in words [2]
VMTPRTLTL [Mtb34-VL9-hybrid] | increased the affinity | –
VMAPRTLVL [Mtb55-VL9-hybrid] | increased the affinity | could interact
